Calls of active or inactive are those of the source.
Tests used:
[1] = tested on: Mycobacterium tuberculosis variant bovis; assay: Downregulation of hadA gene expression in Mycobacterium bovis BCG at 1 times MIC incubated for 8 hrs by RNA-sequencing analysis; type: functional
[2] = tested on: Mycobacterium tuberculosis variant bovis; assay: Downregulation of mmaA3 gene expression in Mycobacterium bovis BCG at 1 times MIC incubated for 8 hrs by RNA-sequencing analysis; type: functional
[3] = tested on: Mycobacterium tuberculosis variant bovis; assay: Downregulation of mmaA2 gene expression in Mycobacterium bovis BCG at 1 times MIC incubated for 8 hrs by RNA-sequencing analysis; type: functional
[4] = tested on: Mycobacterium tuberculosis variant bovis; assay: Downregulation of fabG1 gene expression in Mycobacterium bovis BCG at 1 times MIC incubated for 8 hrs by RNA-sequencing analysis; type: functional
[5] = tested on: Mycobacterium tuberculosis variant bovis BCG; assay: Inhibition of cell wall biosynthesis in Mycobacterium bovis BCG assessed as reduction in trehalose monomycolate accumulation at 0.5 times MIC incubated for 12 hrs in presence of [14C]acetate by TLC based autoradiography analysis; type: functional, organism-based
[6] = tested on: Mycobacterium tuberculosis variant bovis; assay: Upregulation of cmtR gene expression in Mycobacterium bovis BCG at 1 times MIC incubated for 8 hrs by RNA-sequencing analysis; type: functional
[7] = tested on: Mycobacterium tuberculosis variant bovis; assay: Downregulation of inhA gene expression in Mycobacterium bovis BCG at 1 times MIC incubated for 8 hrs by RNA-sequencing analysis; type: functional
[8] = tested on: Mycobacterium tuberculosis variant bovis; assay: Upregulation of mmpL5 gene expression in Mycobacterium bovis BCG at 1 times MIC incubated for 8 hrs by RNA-sequencing analysis; type: functional
[9] = tested on: Mycobacterium tuberculosis variant bovis; assay: Effect on cydA-D gene expression in Mycobacterium bovis BCG at 1 times MIC incubated for 8 hrs by RNA-sequencing analysis; type: functional
[10] = tested on: Mycobacterium tuberculosis variant bovis; assay: Upregulation of ideR gene expression in Mycobacterium bovis BCG at 1 times MIC incubated for 8 hrs by RNA-sequencing analysis; type: functional
[11] = tested on: Mycobacterium tuberculosis variant bovis; assay: Downregulation of fbpA gene expression in Mycobacterium bovis BCG at 1 times MIC incubated for 8 hrs by RNA-sequencing analysis; type: functional
[12] = tested on: Mycobacterium tuberculosis variant bovis; assay: Effect on ctaC-E gene expression in Mycobacterium bovis BCG at 1 times MIC incubated for 8 hrs by RNA-sequencing analysis; type: functional
[13] = tested on: Mycobacterium tuberculosis variant bovis BCG; assay: Inhibition of mycolic acid biosynthesis in Mycobacterium bovis BCG assessed as decrease in alpha mycolic acid transfer onto cell wall arabinogalactan at 0.5 times MIC incubated for 12 hrs in presence of [14C]acetate by TLC based autoradiography analysis; type: functional, organism-based
[14] = tested on: Mycobacterium tuberculosis variant bovis; assay: Effect on nuoA-N gene expression in Mycobacterium bovis BCG at 1 times MIC incubated for 8 hrs by RNA-sequencing analysis; type: functional
[15] = tested on: Mycobacterium tuberculosis variant bovis; assay: Effect on narG-J gene expression in Mycobacterium bovis BCG at 1 times MIC incubated for 8 hrs by RNA-sequencing analysis; type: functional
[16] = tested on: Mycobacterium tuberculosis variant bovis; assay: Upregulation of mbtC gene expression in Mycobacterium bovis BCG at 1 times MIC incubated for 8 hrs by RNA-sequencing analysis; type: functional
[17] = tested on: Mycobacterium tuberculosis variant bovis; assay: Downregulation of acpM gene expression in Mycobacterium bovis BCG at 1 times MIC incubated for 8 hrs by RNA-sequencing analysis; type: functional
[18] = tested on: Mycobacterium tuberculosis variant bovis; assay: Effect on qcrA-C gene expression in Mycobacterium bovis BCG at 1 times MIC incubated for 8 hrs by RNA-sequencing analysis; type: functional
[19] = tested on: Mycobacterium tuberculosis variant bovis BCG; assay: Inhibition of mycolic acid biosynthesis in Mycobacterium bovis BCG assessed as decrease in keto mycolic acid transfer onto cell wall arabinogalactan at 0.5 times MIC incubated for 12 hrs in presence of [14C]acetate by TLC based autoradiography analysis; type: functional, organism-based
[20] = tested on: Mycobacterium tuberculosis variant bovis BCG; assay: Inhibition of late-stage mycolic acid biosynthesis in Mycobacterium bovis BCG at 5 times MIC incubated for 6 hrs by TLC based autoradiography analysis; type: functional, organism-based
[21] = tested on: Mycobacterium tuberculosis variant bovis; assay: Upregulation of tcrYX gene expression in Mycobacterium bovis BCG at 1 times MIC incubated for 8 hrs by RNA-sequencing analysis; type: functional
[22] = tested on: Mycobacterium tuberculosis variant bovis BCG; assay: Inhibition of cell wall biosynthesis in Mycobacterium bovis BCG assessed as formation of cytoplasmic membrane phospholipids at 0.5 times MIC incubated for 12 hrs in presence of [14C]acetate by TLC based autoradiography analysis; type: functional, organism-based
[23] = tested on: Mycobacterium tuberculosis variant bovis BCG; assay: Inhibition of cell wall biosynthesis in Mycobacterium bovis BCG assessed as reduction in trehalose dimycolate accumulation at 0.5 times MIC incubated for 12 hrs in presence of [14C]acetate by TLC based autoradiography analysis; type: functional, organism-based
[24] = tested on: Mycobacterium tuberculosis variant bovis; assay: Upregulation of mbtD gene expression in Mycobacterium bovis BCG at 1 times MIC incubated for 8 hrs by RNA-sequencing analysis; type: functional
[25] = tested on: Mycobacterium tuberculosis variant bovis; assay: Upregulation of mbtB gene expression in Mycobacterium bovis BCG at 1 times MIC incubated for 8 hrs by RNA-sequencing analysis; type: functional
[26] = tested on: Mycobacterium tuberculosis variant bovis; assay: Upregulation of zur gene expression in Mycobacterium bovis BCG at 1 times MIC incubated for 8 hrs by RNA-sequencing analysis; type: functional
[27] = tested on: Mycobacterium tuberculosis variant bovis; assay: Upregulation of mmpS5 gene expression in Mycobacterium bovis BCG at 1 times MIC incubated for 8 hrs by RNA-sequencing analysis; type: functional
[28] = tested on: Mycobacterium tuberculosis variant bovis; assay: Downregulation of fbpD gene expression in Mycobacterium bovis BCG at 1 times MIC incubated for 8 hrs by RNA-sequencing analysis; type: functional
[29] = tested on: Mycobacterium tuberculosis variant bovis; assay: Downregulation of desA2 gene expression in Mycobacterium bovis BCG at 1 times MIC incubated for 8 hrs by RNA-sequencing analysis; type: functional

CNC[C@@H]1C[C@H](c2ccc(OC(F)(F)F)cc2)N1Cc1ccccc1OC(F)(F)F (racemic)
active: Activity [1] | Activity [2] | Activity [3] | Activity [4] | inhibition [5] | Activity [6] | Activity [7] | Activity [8] | Activity [9] | Activity [10] | Activity [11] | Activity [12] | inhibition [13] | Activity [14] | Activity [15] | Activity [16] | Activity [17] | Activity [18] | inhibition [19] | inhibition [20] | Activity [21] | inhibition [23] | Activity [24] | Activity [25] | Activity [26] | Activity [27] | Activity [28] | Activity [29]
inactive: inhibition [22]

Brc1cc(Br)cc([C@H]2C[C@@H](CN3CCCC3)N2Cc2ccccc2Br)c1 (racemic)
active: inhibition [20]
